Measurements: PubChem BioAssay (NCI)
Values joined by “and” are separate entries in the source; they are usually repeats but may differ in a detail not shown here. Equal values may be shown once.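 Cells were grown in 96-well plates and exposed to each compound for 48 hours at five concentrations; endpoints were interpolated linearly between bracketing concentrations, or set to the highest concentration if not reached. Abbreviation: GI50, concentration required for 50% inhibition of growth. TGI denotes the concentration required for complete inhibition of growth.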

What was measured:
Experiment in all cases: NCI anticancer screen, dose series, 48 h
[1] = test system: SK-OV-3 ovarian
[2] = test system: DMS 114 small cell lung
[3] = test system: TK-10 renal
[4] = test system: HOP-92 NSCLC
[5] = test system: SNB-75 CNS
[6] = test system: HCT-116 colon
[7] = test system: SR leukemia
[8] = test system: KM12 colon
[9] = test system: COLO 205 colon
[10] = test system: NCI-H522 lung
[11] = test system: HOP-62 NSCLC
[12] = test system: HT29 colon
[13] = test system: HCC-2998 colon
[14] = test system: A549 NSCLC
[15] = test system: HCT-15 colon
[16] = test system: ACHN renal
[17] = test system: NCI-H226 lung
[18] = test system: DMS 273 small cell lung
[19] = test system: NCI-H23 lung
[20] = test system: SNB-19 CNS
[21] = test system: SF-295 CNS
[22] = test system: SK-MEL-28 melanoma
[23] = test system: KM20L2 colon
[24] = test system: K-562 leukemia
[25] = test system: IGROV1 ovarian
[26] = test system: XF 498 CNS
[27] = test system: UO-31 renal
[28] = test system: OVCAR-3 ovarian
[29] = test system: U251 CNS
[30] = test system: M14 melanoma
[31] = test system: SF-268 CNS
[32] = test system: LXFL 529 NSCLC
[33] = test system: OVCAR-5 ovarian
[34] = test system: MOLT-4 leukemia
[35] = test system: MALME-3M melanoma
[36] = test system: OVCAR-8 ovarian
[37] = test system: OVCAR-4 ovarian
[38] = test system: EKVX NSCLC
[39] = test system: SF-539 CNS
[40] = test system: SNB-78 CNS
[41] = test system: UACC-257 melanoma
[42] = test system: 786-0 renal
[43] = test system: CCRF-CEM leukemia
[44] = test system: SK-MEL-5 melanoma
[45] = test system: A498 renal
[46] = test system: SN12C renal
[47] = test system: UACC-62 melanoma
[48] = test system: M19-MEL melanoma
[49] = test system: HL-60(TB) leukemia
[50] = test system: DLD-1 colon
[51] = test system: SW-620 colon
[52] = test system: NCI-H460 lung
[53] = test system: RXF-631 renal
[54] = test system: LOX IMVI melanoma
[55] = test system: HOP-18 NSCLC
[56] = test system: SK-MEL-2 melanoma
[57] = test system: RXF 393 renal

## COc1cc2c(c(OC)c1OC)-c1ccc(SC)c(=O)cc1[C@@H](NC(=O)c1ccc(F)cc1)CC2
[1]
  GI50: < 0.01 µM
  TGI: 0.072 µM and < 0.01 µM
[2]
  GI50: 0.0267 µM and < 0.01 µM
  TGI: 0.0636 µM and < 0.01 µM
[3]
  GI50: < 0.01 µM
  TGI: 35.5 µM
[4]
  TGI: 0.0958 µM
[5]
  GI50: < 0.01 µM
  TGI: < 0.01 µM
[6]
  GI50: < 0.01 µM
  TGI: < 0.01 µM
[7]
  GI50: 0.0167 µM and < 0.01 µM
  TGI: > 100 µM
[8]
  GI50: < 0.01 µM
  TGI: 0.0871 µM and 0.0284 µM
[9]
  GI50: < 0.01 µM
  TGI: 0.0388 µM and < 0.01 µM
[10]
  TGI: < 0.01 µM
[11]
  GI50: < 0.01 µM
  TGI: 39.9 µM
[12]
  GI50: < 0.01 µM
  TGI: 0.0891 µM and < 0.01 µM
[13]
  GI50: < 0.01 µM
  TGI: 0.0572 µM and < 0.01 µM
[14]
  GI50: 0.0489 µM and < 0.01 µM
  TGI: > 100 µM
[15]
  GI50: 0.043 µM
[16]
  GI50: < 0.01 µM
  TGI: 91.3 µM
[17]
  GI50: < 0.01 µM
  TGI: 0.0744 µM and < 0.01 µM
[18]
  TGI: 44.7 µM
[19]
  GI50: < 0.01 µM
  TGI: < 0.01 µM
[20]
  GI50: 0.0287 µM and < 0.01 µM
[21]
  GI50: < 0.01 µM
[22]
  TGI: > 100 µM
[23]
  GI50: < 0.01 µM
  TGI: 0.0427 µM and < 0.01 µM
[24]
  GI50: < 0.01 µM
  TGI: > 100 µM
[25]
  GI50: < 0.01 µM
  TGI: > 100 µM
[26]
  TGI: 0.0844 µM
[27]
  TGI: 46.6 µM
[28]
  GI50: < 0.01 µM
  TGI: 0.0378 µM and < 0.01 µM
[29]
  GI50: < 0.01 µM
  TGI: 0.0113 µM
[30]
  GI50: < 0.01 µM
  TGI: 2.69 µM
[31]
  GI50: < 0.01 µM
  TGI: 16.8 µM
[32]
  GI50: < 0.01 µM
  TGI: > 100 µM
[33]
  TGI: > 100 µM
[34]
  GI50: < 0.01 µM
  TGI: > 100 µM
[35]
  GI50: < 0.01 µM
  TGI: 91.1 µM
[36]
  GI50: < 0.01 µM
  TGI: 14.6 µM
[37]
  TGI: 91.1 µM
[38]
  GI50: < 0.01 µM
  TGI: > 100 µM
[39]
  GI50: < 0.01 µM
  TGI: 0.0696 µM and < 0.01 µM
[40]
  GI50: < 0.01 µM
  TGI: > 100 µM
[41]
  TGI: > 100 µM
[42]
  GI50: < 0.01 µM
  TGI: 11.5 µM
[43]
  TGI: > 100 µM
[44]
  GI50: 0.0305 µM
[45]
  GI50: < 0.01 µM
  TGI: 0.0757 µM and < 0.01 µM
[46]
  GI50: < 0.01 µM
  TGI: 46.8 µM
[47]
  GI50: < 0.01 µM
  TGI: 27.6 µM
[48]
  GI50: < 0.01 µM
  TGI: > 100 µM
[49]
  TGI: 12.7 µM
[50]
  GI50: < 0.01 µM
  TGI: > 100 µM
[51]
  GI50: < 0.01 µM
  TGI: > 100 µM

## CN1C(=O)CC2(C)c3cc(C=O)ccc3N(C)C12 (stereo unspecified)
[1]
  TGI: > 100 µM
[2]
  TGI: > 100 µM
[52]
  TGI: > 100 µM
[3]
  TGI: > 100 µM
[4]
  TGI: > 100 µM
[5]
  TGI: > 100 µM
[6]
  TGI: > 100 µM
[8]
  TGI: > 100 µM
[9]
  TGI: > 100 µM
[10]
  TGI: > 100 µM
[11]
  TGI: > 100 µM
[12]
  TGI: > 100 µM
[13]
  TGI: > 100 µM
[14]
  TGI: > 100 µM
[15]
  TGI: > 100 µM
[16]
  TGI: > 100 µM
[17]
  TGI: > 100 µM
[19]
  TGI: > 100 µM
[20]
  TGI: > 100 µM
[53]
  TGI: > 100 µM
[54]
  TGI: > 100 µM
[21]
  TGI: > 100 µM
[22]
  TGI: > 100 µM
[23]
  TGI: > 100 µM
[24]
  TGI: > 100 µM
[25]
  TGI: > 100 µM
[26]
  TGI: > 100 µM
[55]
  TGI: > 100 µM
[27]
  TGI: > 100 µM
[28]
  TGI: > 100 µM
[29]
  TGI: > 100 µM
[56]
  TGI: > 100 µM
[30]
  TGI: > 100 µM
[31]
  TGI: > 100 µM
[32]
  TGI: > 100 µM
[33]
  TGI: > 100 µM
[34]
  TGI: > 100 µM
[35]
  TGI: > 100 µM
[57]
  TGI: > 100 µM
[36]
  TGI: > 100 µM
[37]
  TGI: > 100 µM
[38]
  TGI: > 100 µM
[39]
  TGI: > 100 µM
[40]
  TGI: > 100 µM
[41]
  TGI: > 100 µM
[42]
  TGI: > 100 µM
[43]
  TGI: > 100 µM
[44]
  TGI: > 100 µM
[45]
  TGI: > 100 µM
[46]
  TGI: > 100 µM
[47]
  TGI: > 100 µM
[48]
  TGI: > 100 µM
[50]
  TGI: > 100 µM
[51]
  TGI: > 100 µM
